Laboratory results: ChEMBL document CHEMBL5465560, “Selectivity Literature for EUbOPEN Chemogenomic Library” (2024)

Legend:
[1] = target: Histone-lysine N-methyltransferase SUV39H2 (Homo sapiens) (UniProt Q9H5I1); assay: Selectivity interaction (Methyltransferase screen (Scintillation proximity assays)) EUB0000255b SUV39H2
[2] = target: T1, Serine/threonine-protein kinase D3 (Homo sapiens) (UniProt O94806); assay: Selectivity interaction (ActivX KiNativ screen (kinase selectivity in THP-1 cell lysates)) EUB0000639a PRKD3; type: subcellular; settings: lysate, at 0.04 µM
T1 sequence (whole entry): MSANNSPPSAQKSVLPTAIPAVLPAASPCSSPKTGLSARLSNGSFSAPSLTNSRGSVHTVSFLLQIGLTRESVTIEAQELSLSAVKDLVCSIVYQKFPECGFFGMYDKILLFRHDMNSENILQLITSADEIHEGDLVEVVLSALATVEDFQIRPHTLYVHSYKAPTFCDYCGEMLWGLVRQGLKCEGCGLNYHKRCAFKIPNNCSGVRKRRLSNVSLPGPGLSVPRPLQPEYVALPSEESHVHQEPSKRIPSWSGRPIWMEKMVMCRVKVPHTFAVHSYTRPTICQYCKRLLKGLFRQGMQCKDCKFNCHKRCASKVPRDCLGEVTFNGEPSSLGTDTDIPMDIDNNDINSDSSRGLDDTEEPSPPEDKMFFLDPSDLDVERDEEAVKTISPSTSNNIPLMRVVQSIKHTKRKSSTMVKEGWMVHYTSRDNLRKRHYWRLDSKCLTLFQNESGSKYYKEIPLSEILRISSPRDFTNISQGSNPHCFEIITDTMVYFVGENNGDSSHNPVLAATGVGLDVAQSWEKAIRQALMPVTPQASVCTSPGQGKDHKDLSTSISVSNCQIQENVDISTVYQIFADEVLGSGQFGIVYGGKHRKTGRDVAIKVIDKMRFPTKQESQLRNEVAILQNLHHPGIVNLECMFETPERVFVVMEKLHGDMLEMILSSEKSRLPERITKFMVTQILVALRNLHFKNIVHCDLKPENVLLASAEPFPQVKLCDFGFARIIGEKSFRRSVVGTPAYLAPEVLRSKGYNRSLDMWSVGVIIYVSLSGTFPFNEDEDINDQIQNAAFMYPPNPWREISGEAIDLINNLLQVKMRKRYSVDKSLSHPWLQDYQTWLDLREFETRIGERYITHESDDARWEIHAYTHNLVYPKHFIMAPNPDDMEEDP

[3] = system: Mast/stem cell growth factor receptor Kit (Homo sapiens), P10721 [D816V]; assay: (§1) Selectivity interaction (KinomeScan (DiscoverX)) EUB0000695a KIT; settings: at 100 nM
[4] = system: Mast/stem cell growth factor receptor Kit (Homo sapiens), P10721 [V559D]; assay: as §1; settings: at 100 nM
[5] = system: Mast/stem cell growth factor receptor Kit (Homo sapiens), P10721 [A829P]; assay: as §1; settings: at 100 nM
Sequence of Mast/stem cell growth factor receptor Kit (Homo sapiens), P10721 [A829P] (P10721 whole entry A829P): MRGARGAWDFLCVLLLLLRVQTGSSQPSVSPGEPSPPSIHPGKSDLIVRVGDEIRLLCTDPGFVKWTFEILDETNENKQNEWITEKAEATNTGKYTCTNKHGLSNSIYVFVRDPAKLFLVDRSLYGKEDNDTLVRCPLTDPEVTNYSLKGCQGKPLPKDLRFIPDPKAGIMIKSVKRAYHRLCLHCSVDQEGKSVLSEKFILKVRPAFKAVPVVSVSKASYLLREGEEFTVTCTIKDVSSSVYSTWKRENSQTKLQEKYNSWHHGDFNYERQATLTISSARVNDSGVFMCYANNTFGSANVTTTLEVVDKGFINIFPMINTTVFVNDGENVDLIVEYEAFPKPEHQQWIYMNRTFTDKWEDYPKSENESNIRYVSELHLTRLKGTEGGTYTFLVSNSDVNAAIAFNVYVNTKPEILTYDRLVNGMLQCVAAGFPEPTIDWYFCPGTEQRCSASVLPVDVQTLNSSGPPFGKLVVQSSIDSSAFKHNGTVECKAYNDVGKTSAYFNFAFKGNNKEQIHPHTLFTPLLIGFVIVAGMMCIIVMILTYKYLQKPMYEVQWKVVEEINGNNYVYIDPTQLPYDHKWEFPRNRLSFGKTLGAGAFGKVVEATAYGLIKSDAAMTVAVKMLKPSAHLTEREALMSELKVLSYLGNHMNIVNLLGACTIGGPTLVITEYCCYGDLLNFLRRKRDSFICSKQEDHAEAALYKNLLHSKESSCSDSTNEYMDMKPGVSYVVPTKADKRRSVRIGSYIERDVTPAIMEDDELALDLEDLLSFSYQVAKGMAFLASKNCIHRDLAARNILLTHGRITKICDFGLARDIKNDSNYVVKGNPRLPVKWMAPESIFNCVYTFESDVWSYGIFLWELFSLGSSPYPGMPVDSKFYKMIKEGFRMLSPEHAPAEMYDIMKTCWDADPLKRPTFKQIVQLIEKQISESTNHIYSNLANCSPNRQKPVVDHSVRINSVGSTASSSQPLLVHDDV

[6] = system: Mast/stem cell growth factor receptor Kit (Homo sapiens), P10721 [L576P]; assay: as §1; settings: at 100 nM
[7] = system: Mast/stem cell growth factor receptor Kit (Homo sapiens), P10721 [D816H]; assay: as §1; settings: at 100 nM
Sequence of Mast/stem cell growth factor receptor Kit (Homo sapiens), P10721 [D816H] (P10721 whole entry D816H): as the sequence (P10721 whole entry A829P) above, with D816H, P829A counted along it

[8] = system: Mast/stem cell growth factor receptor Kit (Homo sapiens), P10721 [V559D,V654A]; assay: as §1; settings: at 100 nM
[9] = target: Mast/stem cell growth factor receptor Kit (Homo sapiens, UniProt P10721); assay: as §1; settings: at 100 nM
[10] = system: Mast/stem cell growth factor receptor Kit (Homo sapiens), P10721 [V559D,T670I]; assay: as §1; settings: at 100 nM
Sequence of Mast/stem cell growth factor receptor Kit (Homo sapiens), P10721 [V559D,T670I] (P10721 whole entry V559D/T670I): as the sequence (P10721 whole entry A829P) above, with V559D, T670I, P829A counted along it

[11] = system: eIF-2-alpha kinase GCN2 (Homo sapiens), Q9P2K8 [S808G]; assay: Selectivity interaction (KinomeScan (DiscoverX)) EUB0000695a EIF2AK4; settings: at 100 nM
Sequence of eIF-2-alpha kinase GCN2 (Homo sapiens), Q9P2K8 [S808G] (Q9P2K8 whole entry S808G): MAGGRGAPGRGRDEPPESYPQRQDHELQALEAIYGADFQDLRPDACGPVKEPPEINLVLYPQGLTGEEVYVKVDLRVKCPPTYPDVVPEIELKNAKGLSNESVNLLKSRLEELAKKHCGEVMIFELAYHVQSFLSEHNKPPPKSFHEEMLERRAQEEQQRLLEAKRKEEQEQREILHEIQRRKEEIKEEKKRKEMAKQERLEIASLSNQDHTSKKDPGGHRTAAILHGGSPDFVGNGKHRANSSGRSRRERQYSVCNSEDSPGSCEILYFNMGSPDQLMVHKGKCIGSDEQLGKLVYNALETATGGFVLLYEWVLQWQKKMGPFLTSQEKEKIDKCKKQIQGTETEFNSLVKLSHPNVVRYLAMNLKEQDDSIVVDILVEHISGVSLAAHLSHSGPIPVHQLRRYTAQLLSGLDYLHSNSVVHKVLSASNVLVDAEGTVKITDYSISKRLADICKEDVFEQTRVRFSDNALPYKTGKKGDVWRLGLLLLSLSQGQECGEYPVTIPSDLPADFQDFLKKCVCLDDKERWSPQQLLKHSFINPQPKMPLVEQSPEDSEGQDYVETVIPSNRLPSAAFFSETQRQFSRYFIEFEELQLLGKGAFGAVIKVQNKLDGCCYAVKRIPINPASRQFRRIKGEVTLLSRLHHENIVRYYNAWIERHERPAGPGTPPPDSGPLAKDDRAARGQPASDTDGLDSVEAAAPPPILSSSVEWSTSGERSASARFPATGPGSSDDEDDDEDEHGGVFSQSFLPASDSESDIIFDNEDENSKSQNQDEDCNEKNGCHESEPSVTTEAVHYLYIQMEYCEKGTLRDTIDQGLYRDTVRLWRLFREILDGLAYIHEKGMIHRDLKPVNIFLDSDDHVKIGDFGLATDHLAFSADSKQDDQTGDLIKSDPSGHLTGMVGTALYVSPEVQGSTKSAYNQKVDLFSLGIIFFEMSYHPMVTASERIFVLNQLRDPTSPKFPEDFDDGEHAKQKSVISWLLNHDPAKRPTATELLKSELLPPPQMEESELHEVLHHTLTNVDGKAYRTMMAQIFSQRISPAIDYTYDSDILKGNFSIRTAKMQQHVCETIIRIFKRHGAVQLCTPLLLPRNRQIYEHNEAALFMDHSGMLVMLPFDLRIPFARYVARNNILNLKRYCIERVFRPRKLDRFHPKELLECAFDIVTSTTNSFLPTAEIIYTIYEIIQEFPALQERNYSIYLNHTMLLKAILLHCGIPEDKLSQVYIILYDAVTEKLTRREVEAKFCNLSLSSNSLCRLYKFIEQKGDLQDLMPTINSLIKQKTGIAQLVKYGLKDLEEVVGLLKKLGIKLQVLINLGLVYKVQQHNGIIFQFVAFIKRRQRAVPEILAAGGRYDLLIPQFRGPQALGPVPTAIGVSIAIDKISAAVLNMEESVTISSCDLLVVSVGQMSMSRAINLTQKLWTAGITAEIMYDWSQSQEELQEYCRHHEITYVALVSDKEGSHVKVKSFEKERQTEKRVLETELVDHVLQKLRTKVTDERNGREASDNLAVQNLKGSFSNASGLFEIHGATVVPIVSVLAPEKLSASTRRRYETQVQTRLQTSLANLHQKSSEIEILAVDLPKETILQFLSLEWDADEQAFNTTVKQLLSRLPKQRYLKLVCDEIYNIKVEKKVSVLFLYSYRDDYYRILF

[12] = target: T2, Dual specificity protein kinase TTK (Homo sapiens) (UniProt P33981); assay: Selectivity interaction (KinomeScan (DiscoverX)) EUB0000695a TTK; settings: at 100 nM
T2 sequence (whole entry): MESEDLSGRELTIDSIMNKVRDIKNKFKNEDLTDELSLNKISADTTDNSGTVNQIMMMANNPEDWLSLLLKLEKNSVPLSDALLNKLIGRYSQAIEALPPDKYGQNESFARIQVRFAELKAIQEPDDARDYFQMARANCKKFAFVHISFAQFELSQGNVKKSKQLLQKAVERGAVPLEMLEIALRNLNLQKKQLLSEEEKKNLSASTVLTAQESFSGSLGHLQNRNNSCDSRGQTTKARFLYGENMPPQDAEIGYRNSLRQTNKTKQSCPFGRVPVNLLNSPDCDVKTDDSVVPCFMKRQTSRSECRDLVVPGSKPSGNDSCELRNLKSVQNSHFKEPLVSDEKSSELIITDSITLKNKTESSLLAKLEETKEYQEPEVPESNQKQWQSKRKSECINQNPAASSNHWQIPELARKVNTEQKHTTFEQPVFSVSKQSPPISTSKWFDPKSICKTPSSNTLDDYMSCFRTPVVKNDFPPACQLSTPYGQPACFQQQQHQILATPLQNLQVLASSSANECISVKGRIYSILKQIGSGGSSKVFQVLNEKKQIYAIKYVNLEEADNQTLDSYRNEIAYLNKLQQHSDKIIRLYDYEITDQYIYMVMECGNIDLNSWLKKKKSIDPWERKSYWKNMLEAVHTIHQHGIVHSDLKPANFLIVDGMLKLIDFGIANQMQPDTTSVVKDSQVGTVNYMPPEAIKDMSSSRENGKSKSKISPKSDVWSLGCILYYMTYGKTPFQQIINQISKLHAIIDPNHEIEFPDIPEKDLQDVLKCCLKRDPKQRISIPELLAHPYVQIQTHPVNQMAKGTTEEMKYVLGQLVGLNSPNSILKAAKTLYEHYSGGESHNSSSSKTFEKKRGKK

[13] = target: Mitogen-activated protein kinase kinase kinase 11 (Homo sapiens) (UniProt Q16584); assay: Selectivity interaction (KinomeScan (DiscoverX)) EUB0000595a MAP3K11; settings: at 10 µM
[14] = target: Tyrosine-protein kinase Lck (Homo sapiens, UniProt P06239); assay: Selectivity interaction (Kinase screening (Upstate/Millipore)) EUB0000604a LCK

Sequence of Histone-lysine N-methyltransferase SUV39H2 (Homo sapiens) (Q9H5I1 whole entry): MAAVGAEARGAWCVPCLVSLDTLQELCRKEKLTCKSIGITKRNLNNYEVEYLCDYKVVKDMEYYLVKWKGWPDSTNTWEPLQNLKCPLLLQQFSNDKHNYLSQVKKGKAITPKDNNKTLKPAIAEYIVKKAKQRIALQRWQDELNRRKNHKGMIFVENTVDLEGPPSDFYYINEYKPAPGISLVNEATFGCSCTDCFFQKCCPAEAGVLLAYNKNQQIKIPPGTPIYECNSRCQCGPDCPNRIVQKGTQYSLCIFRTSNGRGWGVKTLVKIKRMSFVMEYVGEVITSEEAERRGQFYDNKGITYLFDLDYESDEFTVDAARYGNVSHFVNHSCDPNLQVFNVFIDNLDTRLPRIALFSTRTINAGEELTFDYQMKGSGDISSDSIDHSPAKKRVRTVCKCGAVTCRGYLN

COCCN1CCC(c2cc(CN(C)C(=O)c3cccc(Oc4ccccc4)c3)ccn2)CC1
% activity ([1]; at 1 µM): > 95% | % activity ([1]; at 10 µM): > 90%

CC[C@@H]1[C@H](F)C(=O)N[C@@H]1COc1nccc2cc(C(N)=O)c(OC)cc12 [ZIMLOVISERTIB]
% of inhibition [2]: 3.3%

Cc1cc(F)c(C(=O)Nc2cccc(-c3nncn3C(C)C)n2)cc1-n1cnc(C2CC2)c1
% of control [3]: 84% | % of control [4]: 92% | % of control [5]: 82% | % of control [6]: 94% | % of control [7]: 79% | % of control [8]: 100% | % of control [9]: 89% | % of control [10]: 100% | % of control [11]: 77% | % of control [12]: 87%

COCC(=O)NC/C=C/c1ccc2ncnc(Nc3ccc(Oc4ccc(C)nc4)c(C)c3)c2c1 [CP-724714]
% of control [13]: 92%

Cc1cnc(Nc2ccc(F)cc2Cl)nc1-c1c[nH]c(C(=O)N[C@H](CO)c2cccc(Cl)c2)c1
% of inhibition [14]: 3%
